Laboratory results as given in patent publication US4616081A, “Cephalosporin compounds” (Asahi Kasei Kogyo Kabushiki Kaisha, priority 1982, dated 1986).

How the values were obtained:
E. coli NIHJ-JC2 = assay: MIC against E. coli NIHJ-JC2; format: cell-based
Protocol: (§1) Nextly, antibacterial activity or minimum inhibitory concentration (MIC) was measured and the results are shown in Table 1 with respect to the following representative compounds according to the present invention. [drawing 19]
(§2) With respect to Compound Nos. 14 and 15, antibacterial activity or minimum inhibitory concentration (MIC) was measured and the results are shown in Table 2. [drawing 21]

E. coli W3630 = assay: MIC against E. coli W3630; format: cell-based
Protocol: as §1, §2

E. coli W3630 RGN14 = assay: MIC against E. coli W3630 RGN14; format: cell-based
E. coli W3630 RGN238 = assay: MIC against E. coli W3630 RGN238; format: cell-based
E. coli 0205 = assay: MIC against E. coli 0205; format: cell-based
[1] = tested on: Klebs. pneumoniae ATCC 10031; assay: MIC against Klebs. pneumoniae ATCC 10031; format: cell-based
Protocol: as §1, §2

Shigella sonnei E33 = assay: MIC against Shigella sonnei E33; format: cell-based
Protocol: as §1, §2

Proteus rettgeri ACR = assay: MIC against Proteus rettgeri ACR; format: cell-based
Protocol: as §1, §2

[2] = tested on: Enterobact. cloacae GN336; assay: MIC against Enterobact. cloacae GN336; format: cell-based
Protocol: as §1, §2

Serratia marcescens = assay: MIC against Serratia marcescens; format: cell-based
Protocol: as §1, §2

[3] = acute toxicity test using mice, intraperitoneal; conditions: mouse, in vivo, ip
Excerpt: In addition to excellent antibacterial activity, the compounds of the present invention are low in toxicity. For example, in acute toxicity test using mice, the following results were obtained with Compound Nos. 2, 3, 7, 14, 15 and 23 which were intraperitoneally administered.

[4] = maximum blood concentration after oral administration in Wister rats (HPLC and Bioassay); format: in vivo; conditions: Wister rat, fasted, 30 mg/kg, solution of pH 7 in phosphate buffer
Protocol: Further in the compounds according to the present invention, intestinal absorption is improved by the introduction of amino acids at the 3-position thereof. For example, comparison of the maximum blood concentration of the Compound Nos. 2, 3, 7, 8, 14, 15 and 23 with that of Comparative Compound (b) establishes and affirms the effects, as is shown below. In the above test, the method for measurement of blood concentration was as follows. Rate: Wister rat weighing 170 to 220 g Dose: 30 mg/kg Wister rats were fasted from the previous night but freely accessible to water. Each of drugs was administered as a solution of pH 7 in a phosphate buffer, when orally administered. The blood concentration was measured in accordance with the High Performance Liquid Chromatography (HPLC) method and the Bioassay method by using E. coli as bacteria for test.

Staph. aureus ATCC 6538P = assay: MIC against Staph. aureus ATCC 6538P; format: cell-based
Protocol: as §1, §2

Staph. aureus MS27 = assay: MIC against Staph. aureus MS27; format: cell-based
Protocol: as §1, §2

Strept. pyogenes NY5 = assay: MIC against Strept. pyogenes NY5; format: cell-based; conditions: Bacterial count inoculated 10^6 cells/ml
Protocol: as §1, §2

Sarcina lutea ATCC 9341 = assay: MIC against Sarcina lutea ATCC 9341; format: cell-based
Protocol: as §1, §2

Bac. subtilis ATCC 6633 = assay: MIC against Bac. subtilis ATCC 6633; format: cell-based; conditions: Bacterial count inoculated 10^6 cells/ml
Protocol: as §2

E. coli W3630 PS3 = assay: MIC against E. coli W3630 PS3; format: cell-based
Protocol: as §1, §2

[5] = tested on: Citrobact. freundii GN346; assay: MIC against Citrobact. freundii GN346; format: cell-based
Protocol: as §1, §2

[6] = tested on: Salm. enteritidis Gaertner; assay: MIC against Salm. enteritidis Gaertner; format: cell-based
Protocol: as §1, §2

Proteus morganii 0239 = assay: MIC against Proteus morganii 0239; format: cell-based
Protocol: as §1, §2

[7] = tested on: Enterobact. aerogenes 0655; assay: MIC against Enterobact. aerogenes 0655; format: cell-based
Protocol: as §1, §2

Ps. aeruginosa 0812 M2 = assay: MIC against Ps. aeruginosa 0812 M2; format: cell-based; conditions: Bacterial count inoculated 10^6 cells/ml
Protocol: as §1, §2

Staph. pyogenes NY5 = assay: MIC against Staph. pyogenes NY5; format: cell-based
[8] = Bacterial count inoculated 10^6 cells/ml
[9] = Table 3, second listing of the strain, head prints 10^6 cells/ml
[10] = Bacterial count inoculated 10^8 cells/ml

CO/N=C(\C(=O)N[C@@H]1C(=O)N2C(C(=O)O)=C(CSc3ncc(C[C@H](N)C(=O)O)[nH]3)CS[C@H]12)c1csc(N)n1 [Compound No. 23]
Minimum Inhibitory Concentration (MIC) (E. coli NIHJ-JC2; [8]): ≤ 0.2 | Minimum Inhibitory Concentration (MIC) (E. coli NIHJ-JC2; [9]): 12.5 | Minimum Inhibitory Concentration (MIC) (E. coli W3630; [8]): ≤ 0.2 | Minimum Inhibitory Concentration (MIC) (E. coli W3630; [9]): 6.3 | Minimum Inhibitory Concentration (MIC) (E. coli W3630 RGN14; [8]): ≤ 0.2 | Minimum Inhibitory Concentration (MIC) (E. coli W3630 RGN14; [9]): 6.3 | Minimum Inhibitory Concentration (MIC) (E. coli W3630 RGN238; [8]): ≤ 0.2 | Minimum Inhibitory Concentration (MIC) (E. coli W3630 RGN238; [9]): 25 | Minimum Inhibitory Concentration (MIC) (E. coli 0205; [8]): 0.4 | Minimum Inhibitory Concentration (MIC) (E. coli 0205; [9]): 12.5 | Minimum Inhibitory Concentration (MIC) [1, 8]: ≤ 0.2 | Minimum Inhibitory Concentration (MIC) [1, 9]: 1.6 | Minimum Inhibitory Concentration (MIC) (Shigella sonnei E33; [8]): ≤ 0.2 | Minimum Inhibitory Concentration (MIC) (Shigella sonnei E33; [9]): 1.6 | Minimum Inhibitory Concentration (MIC) (Proteus rettgeri ACR; [8]): ≤ 0.2 | Minimum Inhibitory Concentration (MIC) (Proteus rettgeri ACR; [9]): 25 | Minimum Inhibitory Concentration (MIC) [2, 8]: ≤ 0.2 | Minimum Inhibitory Concentration (MIC) [2, 9]: 25 | Minimum Inhibitory Concentration (MIC) (Serratia marcescens; [8]): ≤ 0.2 | Minimum Inhibitory Concentration (MIC) (Serratia marcescens; [9]): > 100 | LD50 [3]: 10000 to 12000 mg/kg | Cmax [4]: 6 µg/mL

CO/N=C(\C(=O)N[C@@H]1C(=O)N2C(C(=O)O)=C(C[n+]3cccc(CC(N)C(=O)O)c3)CS[C@H]12)c1csc(N)n1 (some centres unmarked) [Compound No. 15]
Minimum Inhibitory Concentration (MIC) (Staph. aureus ATCC 6538P; [8]): 3.1 | Minimum Inhibitory Concentration (MIC) (Staph. aureus MS27; [8]): 6.3 | Minimum Inhibitory Concentration (MIC) (Strept. pyogenes NY5): ≤ 0.1 | Minimum Inhibitory Concentration (MIC) (Sarcina lutea ATCC 9341; [8]): ≤ 0.1 | Minimum Inhibitory Concentration (MIC) (Bac. subtilis ATCC 6633): 1.6 | Minimum Inhibitory Concentration (MIC) (E. coli NIHJ-JC2; [8]): 0.2 | Minimum Inhibitory Concentration (MIC) (E. coli W3630; [8]): 0.2 | Minimum Inhibitory Concentration (MIC) (E. coli W3630 PS3; [8]): 0.1 | Minimum Inhibitory Concentration (MIC) [5, 8]: 12.5 | Minimum Inhibitory Concentration (MIC) [1, 8]: 0.1 | Minimum Inhibitory Concentration (MIC) [6, 8]: ≤ 0.1 | Minimum Inhibitory Concentration (MIC) (Shigella sonnei E33; [8]): ≤ 0.1 | Minimum Inhibitory Concentration (MIC) (Proteus morganii 0239; [8]): 0.2 | Minimum Inhibitory Concentration (MIC) (Proteus rettgeri ACR; [8]): 0.2 | Minimum Inhibitory Concentration (MIC) [7, 8]: 0.2 | Minimum Inhibitory Concentration (MIC) [2, 8]: 0.2 | Minimum Inhibitory Concentration (MIC) (Serratia marcescens; [8]): 0.4 | Minimum Inhibitory Concentration (MIC) (Ps. aeruginosa 0812 M2): 6.3 | LD50 [3]: 10000 to 12000 mg/kg | Cmax [4]: 12 µg/mL

CO/N=C(\C(=O)N[C@@H]1C(=O)N2C(C(=O)O)=C(COC(C)=O)CS[C@H]12)c1csc(N)n1 [Comparative Compound (b), reference compound]
Minimum Inhibitory Concentration (MIC) (Staph. aureus ATCC 6538P; [8]): 1.6 | Minimum Inhibitory Concentration (MIC) (Staph. aureus ATCC 6538P; [10]): 3.1 | Minimum Inhibitory Concentration (MIC) (Staph. aureus MS27; [8]): 1.6 | Minimum Inhibitory Concentration (MIC) (Staph. aureus MS27; [10]): 3.1 | Minimum Inhibitory Concentration (MIC) (Sarcina lutea ATCC 9341; [8]): ≤ 0.2 | Minimum Inhibitory Concentration (MIC) (Sarcina lutea ATCC 9341; [10]): ≤ 0.2 | Minimum Inhibitory Concentration (MIC) (E. coli NIHJ-JC2; [10]): 6.3 | Minimum Inhibitory Concentration (MIC) (E. coli NIHJ-JC2; [9]): 25 | Minimum Inhibitory Concentration (MIC) (E. coli W3630; [8]): ≤ 0.2 | Minimum Inhibitory Concentration (MIC) (E. coli W3630; [10]): 25 | Minimum Inhibitory Concentration (MIC) (E. coli W3630; [9]): 6.3 | Minimum Inhibitory Concentration (MIC) (E. coli W3630 PS3; [8]): ≤ 0.2 | Minimum Inhibitory Concentration (MIC) (E. coli W3630 PS3; [10]): 25 | Minimum Inhibitory Concentration (MIC) (E. coli W3630 RGN14; [8]): ≤ 0.2 | Minimum Inhibitory Concentration (MIC) (E. coli W3630 RGN14; [9]): 100 | Minimum Inhibitory Concentration (MIC) (E. coli W3630 RGN238; [8]): ≤ 0.2 | Minimum Inhibitory Concentration (MIC) (E. coli W3630 RGN238; [9]): ≥ 100 | Minimum Inhibitory Concentration (MIC) (E. coli 0205; [8]): 0.4 | Minimum Inhibitory Concentration (MIC) (E. coli 0205; [9]): 50 | Minimum Inhibitory Concentration (MIC) [5, 8]: 25 | Minimum Inhibitory Concentration (MIC) [5, 10]: 100 | Minimum Inhibitory Concentration (MIC) [1, 8]: ≤ 0.2 | Minimum Inhibitory Concentration (MIC) [1, 10]: 25 | Minimum Inhibitory Concentration (MIC) [1, 9]: 1.6 | Minimum Inhibitory Concentration (MIC) [6, 8]: ≤ 0.2 | Minimum Inhibitory Concentration (MIC) [6, 10]: 6.3 | Minimum Inhibitory Concentration (MIC) (Shigella sonnei E33; [8]): ≤ 0.2 | Minimum Inhibitory Concentration (MIC) (Shigella sonnei E33; [10]): 1.6 | Minimum Inhibitory Concentration (MIC) (Shigella sonnei E33; [9]): 3.1 | Minimum Inhibitory Concentration (MIC) (Proteus morganii 0239; [8]): ≤ 0.2 | Minimum Inhibitory Concentration (MIC) (Proteus morganii 0239; [10]): 50 | Minimum Inhibitory Concentration (MIC) (Proteus rettgeri ACR; [8]): ≤ 0.2 | Minimum Inhibitory Concentration (MIC) (Proteus rettgeri ACR; [9]): 100 | Minimum Inhibitory Concentration (MIC) [7, 8]: ≤ 0.2 | Minimum Inhibitory Concentration (MIC) [7, 10]: 50 | Minimum Inhibitory Concentration (MIC) [2, 8]: ≤ 0.2 | Minimum Inhibitory Concentration (MIC) [2, 10]: 50 | Minimum Inhibitory Concentration (MIC) [2, 9]: 50 | Minimum Inhibitory Concentration (MIC) (Serratia marcescens; [8]): ≤ 0.2 | Minimum Inhibitory Concentration (MIC) (Serratia marcescens; [10]): 50 | Minimum Inhibitory Concentration (MIC) (Serratia marcescens; [9]): > 100 | Minimum Inhibitory Concentration (MIC) (Staph. pyogenes NY5; [8]): ≤ 0.2 | Minimum Inhibitory Concentration (MIC) (Staph. pyogenes NY5; [10]): 0.2 | Cmax [4]: 0.2 µg/mL
